{
  "source": "ChEMBL document CHEMBL1201862",
  "about": "“PubChem BioAssay data set” (2004)",
  "key": {"cells [1]": {"assay": "cells"}, "[2]": {"assay": "non-specific 3'UTR reporter inhibition in Clone20-Shn3RL – cell-based, Renilla luciferase, cherry-picked, counter-screen for Shn3 inhibitor project, dose response (AID 624133)", "format": "functional"}, "[3]": {"assay": "DRD fibroblast viability loss – cell-based, non-viral oncogenic, luminescence, dose response (AID 1934)", "format": "functional", "conditions": "Homo sapiens"}, "[4]": {"assay": "loss of viability in HepG2 cells – cell-based, CellTiter-Glo, cherry-picked, cytotoxicity control for Shn3 inhibitor project, dose response (AID 624134)", "format": "functional"}, "[5]": {"assay": "reduction of Shn3 3'UTR-driven luciferase in osteoblasts – cell-based, Clone20 osteoblasts, firefly luciferase, cherry-picked, dose response (AID 624132)", "format": "functional"}, "[6]": {"assay": "potency of ADAM10 substrate cleavage blockers – biochemical, QFRET, dose response (AID 743254);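 note: ADAM10 enzyme with the DM2 quenched FRET peptide as substrate; EDANS fluorescence gain as the protease cuts the substrate; inhibitor potency against ADAM10 proteolytic activity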"}, "BJ [7]": {"test_system": "BJ", "assay": "BJ-TERT fibroblast viability loss – cell-based, RAS-independent, luminescence, dose response (AID 1933)", "format": "functional", "conditions": "Homo sapiens"}, "BJ [8]": {"test_system": "BJ", "assay": "cells", "format": "functional, cell-based", "conditions": "Homo sapiens"}, "[9]": {"molecular_target": "Disintegrin and metalloproteinase domain-containing protein 17 (Homo sapiens, UniProt P78536)", "sequence (P78536 whole entry, the tested form may be a part)": "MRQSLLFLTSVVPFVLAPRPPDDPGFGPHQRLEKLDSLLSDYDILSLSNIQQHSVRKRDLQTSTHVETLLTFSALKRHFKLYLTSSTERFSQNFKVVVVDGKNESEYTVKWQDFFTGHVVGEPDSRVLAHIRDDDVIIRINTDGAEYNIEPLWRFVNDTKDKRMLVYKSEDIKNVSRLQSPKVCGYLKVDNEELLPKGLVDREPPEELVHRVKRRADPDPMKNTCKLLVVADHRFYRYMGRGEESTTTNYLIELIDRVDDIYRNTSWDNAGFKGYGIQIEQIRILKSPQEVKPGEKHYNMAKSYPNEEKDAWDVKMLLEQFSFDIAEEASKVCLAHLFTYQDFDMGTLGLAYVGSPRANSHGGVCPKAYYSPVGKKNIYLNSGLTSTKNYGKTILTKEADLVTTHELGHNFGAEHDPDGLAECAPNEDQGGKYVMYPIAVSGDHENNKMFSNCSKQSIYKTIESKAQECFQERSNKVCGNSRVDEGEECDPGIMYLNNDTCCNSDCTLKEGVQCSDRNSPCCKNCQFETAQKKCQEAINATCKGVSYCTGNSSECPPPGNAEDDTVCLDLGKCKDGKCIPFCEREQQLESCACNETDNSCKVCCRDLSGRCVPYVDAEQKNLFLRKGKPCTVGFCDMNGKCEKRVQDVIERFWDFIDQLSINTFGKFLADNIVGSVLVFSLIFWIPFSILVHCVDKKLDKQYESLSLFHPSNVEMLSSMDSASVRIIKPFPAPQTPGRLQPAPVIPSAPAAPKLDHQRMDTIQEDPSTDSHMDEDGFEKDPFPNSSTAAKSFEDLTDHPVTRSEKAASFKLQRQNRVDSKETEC", "assay": "inhibition of ADAM17 substrate cleavage – biochemical, quenched FRET substrate, counter-screen for ADAM10 exosite inhibitor project, dose response (AID 743253)"}, "BJ [10]": {"test_system": "BJ", "assay": "BJ-TERT-LT-ST fibroblast viability loss – cell-based, RAS-independent, luminescence, dose response (AID 1935);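 note: BJ fibroblasts immortalized with TERT plus LT and ST oncogenes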", "format": "functional", "conditions": "Homo sapiens"}, "[11]": {"assay": "viability loss in HeLa cells – cytotoxicity control for MgcRacGAP inhibitor project, dose response (AID 624300)", "format": "functional"}, "Nonstructural protein 1": {"molecular_target": "Nonstructural protein 1 (Influenza A virus, UniProt Q194T2)", "sequence (Q194T2 whole entry)": "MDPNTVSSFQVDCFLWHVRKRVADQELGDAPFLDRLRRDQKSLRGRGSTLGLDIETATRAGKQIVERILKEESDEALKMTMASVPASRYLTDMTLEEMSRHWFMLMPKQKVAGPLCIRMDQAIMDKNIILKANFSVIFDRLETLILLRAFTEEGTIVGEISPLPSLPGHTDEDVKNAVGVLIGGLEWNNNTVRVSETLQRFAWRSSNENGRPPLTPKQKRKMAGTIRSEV", "format": "functional, Influenza A virus (A/California/07/2009(H1N1))"}, "[12]": {"molecular_target": "T1, DNA repair protein RAD52 homolog (Homo sapiens, UniProt P43351)", "T1 sequence (P43351 whole entry)": "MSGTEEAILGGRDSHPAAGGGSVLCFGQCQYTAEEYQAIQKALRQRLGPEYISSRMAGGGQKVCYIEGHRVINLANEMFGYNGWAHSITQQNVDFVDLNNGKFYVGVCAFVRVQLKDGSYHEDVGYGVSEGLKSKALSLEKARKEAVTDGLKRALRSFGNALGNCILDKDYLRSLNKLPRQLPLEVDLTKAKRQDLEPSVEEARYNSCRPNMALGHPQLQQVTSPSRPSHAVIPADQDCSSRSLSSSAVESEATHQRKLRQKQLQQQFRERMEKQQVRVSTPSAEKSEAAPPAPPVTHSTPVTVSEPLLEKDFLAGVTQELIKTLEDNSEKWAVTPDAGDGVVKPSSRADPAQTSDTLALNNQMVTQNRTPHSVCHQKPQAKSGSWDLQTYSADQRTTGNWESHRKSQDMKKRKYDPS", "format": "functional, biochemical"}, "[13]": {"assay": "HGIII-sPLA2 enzyme inhibition potency – biochemical, QFRET, IC50, dose response (AID 743457);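 note: green fluorescence rise as the enzyme cleaves BODIPY PC-A2 in liposomes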"}, "[14]": {"molecular_target": "Photoreceptor-specific nuclear receptor (Homo sapiens, UniProt Q9Y5X4)", "sequence (Q9Y5X4 whole entry)": "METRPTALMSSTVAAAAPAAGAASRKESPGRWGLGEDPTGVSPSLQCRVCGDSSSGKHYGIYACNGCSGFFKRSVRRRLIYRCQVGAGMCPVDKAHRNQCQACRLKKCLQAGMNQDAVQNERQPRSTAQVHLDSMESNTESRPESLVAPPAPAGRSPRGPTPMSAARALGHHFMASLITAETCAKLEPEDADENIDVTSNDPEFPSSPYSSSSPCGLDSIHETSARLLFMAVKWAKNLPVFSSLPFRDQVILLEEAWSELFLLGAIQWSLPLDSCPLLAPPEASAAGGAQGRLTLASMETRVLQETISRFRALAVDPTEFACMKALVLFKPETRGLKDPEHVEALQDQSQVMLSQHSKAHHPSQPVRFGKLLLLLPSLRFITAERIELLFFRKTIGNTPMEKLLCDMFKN", "format": "functional, cell-based"}, "[15]": {"molecular_target": "T2, Rac GTPase-activating protein 1 (Homo sapiens, UniProt Q9H0H5)", "T2 sequence (Q9H0H5 whole entry)": "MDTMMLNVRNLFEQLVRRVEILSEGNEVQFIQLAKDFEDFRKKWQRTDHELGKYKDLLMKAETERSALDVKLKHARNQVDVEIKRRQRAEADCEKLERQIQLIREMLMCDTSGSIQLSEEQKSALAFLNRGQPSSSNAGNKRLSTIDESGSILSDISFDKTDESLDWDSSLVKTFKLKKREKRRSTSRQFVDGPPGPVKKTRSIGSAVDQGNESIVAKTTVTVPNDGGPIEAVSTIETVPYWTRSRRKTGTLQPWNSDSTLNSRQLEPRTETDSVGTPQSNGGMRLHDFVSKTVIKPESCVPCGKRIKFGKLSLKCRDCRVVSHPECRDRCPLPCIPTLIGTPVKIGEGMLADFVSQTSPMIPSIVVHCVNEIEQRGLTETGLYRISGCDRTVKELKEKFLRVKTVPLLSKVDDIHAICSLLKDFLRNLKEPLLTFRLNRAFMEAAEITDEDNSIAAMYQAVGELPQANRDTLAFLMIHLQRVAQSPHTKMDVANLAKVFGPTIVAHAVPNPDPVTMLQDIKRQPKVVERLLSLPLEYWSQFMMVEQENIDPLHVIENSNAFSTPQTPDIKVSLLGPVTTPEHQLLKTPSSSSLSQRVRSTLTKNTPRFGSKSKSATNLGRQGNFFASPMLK", "assay": "blockers of MgcRacGAP-driven Rac1 GTP hydrolysis – biochemical, ADP Hunter fluorescence, primary and confirmatory, confirmation (AID 624330)", "format": "functional"}, "cells [16]": {"assay": "cells", "conditions": "A549"}, "[17]": {"assay": "A2780 cell killing – plate reader, dry powder samples, cytotoxicity control, dose response (AID 743046)", "format": "functional, cell-based"}, "Paired box protein Pax-8": {"molecular_target": "Paired box protein Pax-8 (Homo sapiens, UniProt Q06710)", "sequence (Q06710 whole entry)": "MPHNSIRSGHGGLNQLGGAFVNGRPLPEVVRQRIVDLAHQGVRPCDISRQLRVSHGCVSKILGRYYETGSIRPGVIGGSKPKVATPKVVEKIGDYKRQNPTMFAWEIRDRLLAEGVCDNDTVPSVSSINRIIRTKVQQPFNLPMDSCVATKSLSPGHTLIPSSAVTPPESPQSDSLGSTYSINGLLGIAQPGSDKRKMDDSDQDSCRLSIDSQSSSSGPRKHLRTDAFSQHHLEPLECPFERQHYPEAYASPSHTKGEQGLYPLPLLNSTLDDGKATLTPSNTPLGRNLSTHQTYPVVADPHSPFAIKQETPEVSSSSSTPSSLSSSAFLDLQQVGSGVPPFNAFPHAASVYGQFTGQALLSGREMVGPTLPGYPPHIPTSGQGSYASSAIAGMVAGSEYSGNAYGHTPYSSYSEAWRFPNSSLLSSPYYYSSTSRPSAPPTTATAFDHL", "assay": "PAX8 transcriptional activity inhibition in RMG-I – RMG-I cells, luciferase, cherry-pick, dose response (AID 687027)", "format": "functional, cell-based"}, "[18]": {"assay": "general cell-killing toxicity readout – plate reader, dry powder samples, cytotoxicity control for PAX8 inhibitor project, dose response (AID 743021)", "format": "functional, cell-based"}, "[19]": {"assay": "OVCAR8 cell viability loss – plate reader, dry powder samples, PAX8 project, dose response (AID 743197)", "format": "functional, cell-based", "conditions": "OVCAR-8"}, "[20]": {"assay": "toxicity toward immortalized ovarian surface epithelium – cell-based, plate reader, dry powder samples, cytotoxicity control for PAX8 inhibitor project, dose response (AID 743045)", "format": "functional"}, "[21]": {"assay": "OVCAR-3 cell viability loss – plate reader, dry powder samples, PAX8 inhibitor project, dose response (AID 743044)", "format": "functional, cell-based"}, "[22]": {"assay": "HeLa cell viability loss – plate reader, dry powder, cytotoxicity control, dose response (AID 651946)", "format": "functional, cell-based"}, "[23]": {"assay": "Late stage assay provider results from the probe development effort to identify inhibitors of the Plasmodium falciparum M18 Aspartyl Aminopeptidase (M18AAP): radiolabel-based cell-based dose response assay to identify compounds that inhibit P. falciparum growth in RBCs, Set 2..", "format": "functional"}, "[24]": {"assay": "MITF Orthogonal Assay: SK-MEL-5 CTG Assay Measured in Cell-Based System Using Plate Reader - 2084-02_Inhibitor_Dose_DryPowder_Activity_Set7.", "format": "functional"}, "[25]": {"assay": "inhibitors of TRPM1-promoter reporter in SK-MEL-5 – cell-based, luciferase, dry powder, set 8, MITF inhibitor project, dose response (AID 624430)", "format": "functional"}, "[26]": {"assay": "MITF: Counter assay: A375 proliferation Measured in Cell-Based System Using Plate Reader - 2084-03_Inhibitor_Dose_DryPowder_Activity_Set8.", "format": "functional", "conditions": "A-375"}, "[27]": {"assay": "OV-90 cell viability loss – plate reader, dry powder, SA8, PAX8 inhibitor project, dose response (AID 743149)", "format": "functional, cell-based"}, "[28]": {"assay": "COV434 cell viability loss – plate reader, dry powder, SA7, cytotoxicity control for PAX8 inhibitor project, dose response (AID 743145)", "format": "functional, cell-based"}, "[29]": {"assay": "IGROV1 cell killing – plate reader, dry powder samples, PAX8 inhibitor project, dose response (AID 743043)", "format": "functional, cell-based", "conditions": "IGROV-1"}, "[30]": {"assay": "PAX8-dependent cell viability loss – plate reader, dry powder, dose response (AID 743049)", "format": "functional, cell-based"}, "[31]": {"assay": "viability of BHK-21 cells – cell-based, secondary screen, cytotoxicity control for flavivirus guanylyltransferase probe project (AID 624078)", "format": "functional"}, "[32]": {"molecular_target": "Protein disulfide-isomerase (Homo sapiens, UniProt P07237)", "sequence (P07237 whole entry)": "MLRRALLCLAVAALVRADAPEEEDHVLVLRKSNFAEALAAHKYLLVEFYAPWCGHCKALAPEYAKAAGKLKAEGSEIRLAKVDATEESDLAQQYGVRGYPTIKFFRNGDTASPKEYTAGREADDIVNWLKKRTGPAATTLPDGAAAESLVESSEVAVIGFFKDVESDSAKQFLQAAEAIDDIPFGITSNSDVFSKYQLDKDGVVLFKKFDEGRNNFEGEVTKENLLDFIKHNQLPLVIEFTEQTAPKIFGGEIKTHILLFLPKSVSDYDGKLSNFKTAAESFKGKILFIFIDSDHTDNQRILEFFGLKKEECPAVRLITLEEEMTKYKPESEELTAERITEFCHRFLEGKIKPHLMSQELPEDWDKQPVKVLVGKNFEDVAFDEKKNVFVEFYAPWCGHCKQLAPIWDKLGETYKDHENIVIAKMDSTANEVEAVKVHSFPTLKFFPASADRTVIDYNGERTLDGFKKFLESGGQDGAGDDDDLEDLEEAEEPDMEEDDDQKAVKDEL", "assay": "inhibition of PDI-mediated insulin reduction – biochemical, turbidity, dry powder samples, set 2, confirmation (AID 652146)"}},
  "note": "Calls of active or inactive are those of the source.",
  "data": [
    {"smiles": "Cc1cccn2c(=O)c(/C=C(\\C#N)C(=O)NC3CCS(=O)(=O)C3)c(N3CCC(C(N)=O)CC3)nc12", "note": "(stereo unspecified)", "values": [
      {"measurement": "AC50", "setting": "cells [1]", "value": "4.38 µM (active)"}
    ]},
    {"smiles": "COc1ccc(C)c2sc(N(CCCN(C)C)C(=O)c3ccc(S(=O)(=O)N4CCc5ccccc5C4)cc3)nc12", "values": [
      {"measurement": "AC50", "setting": "[2]", "value": "5.51 µM (active)"},
      {"measurement": "EC50", "setting": "[3]", "value": "4.25 µM (active)"},
      {"measurement": "AC50", "setting": "[4]", "value": "2.98 µM (active)"},
      {"measurement": "AC50", "setting": "[5]", "value": "4.4 µM (active)"},
      {"measurement": "IC50", "setting": "[6]", "value": "> 69.5 µM (inactive)"},
      {"measurement": "EC50", "setting": "BJ [7]", "value": "1.48 µM (inconclusive)"},
      {"measurement": "EC50", "setting": "BJ [8]", "value": "5.65 µM (active)"},
      {"measurement": "IC50", "setting": "[9]", "value": "> 69.5 µM (inactive)"},
      {"measurement": "EC50", "setting": "BJ [10]", "value": "2.13 µM (inconclusive)"}
    ]},
    {"smiles": "CN(C)c1ccc(/C=C/c2cc[n+](C)c3ccccc23)cc1", "values": [
      {"measurement": "CC50", "setting": "[11]", "value": "54.1 µM (active)"},
      {"measurement": "IC50", "setting": "Nonstructural protein 1", "value": "10.6 µM (active)"},
      {"measurement": "AC50", "setting": "[12]", "value": "1.23 µM (active)"},
      {"measurement": "IC50", "setting": "[13]", "value": "30.1 µM (inactive)"},
      {"measurement": "IC50", "setting": "[14]", "value": "7.07 µM (active)"},
      {"measurement": "IC50", "setting": "[15]", "value": "38.5 µM (active)"}
    ]},
    {"smiles": "CC(=O)c1cccc(-c2ccnc3c2CC(C(=O)NCc2ccc(F)c(F)c2)O3)c1", "note": "(stereo unspecified)", "values": [
      {"measurement": "AC50", "setting": "cells [16]", "value": "3.92 µM (active)"}
    ]},
    {"smiles": "C[C@H]1CCCCO[C@H](CN(C)S(=O)(=O)c2ccc(Cl)cc2)[C@@H](C)CN([C@@H](C)CO)C(=O)c2cc(NS(=O)(=O)c3ccc(F)cc3)ccc2O1", "values": [
      {"measurement": "AC50", "setting": "[17]", "value": "58.4 µM (active)"},
      {"measurement": "AC50", "setting": "Paired box protein Pax-8", "value": "8.27 µM (active)"}
    ]},
    {"smiles": "Cc1ccc(S(=O)(=O)Nc2ccc3c(c2)C(=O)N([C@H](C)CO)C[C@H](C)[C@H](CN(C)Cc2ccc(C(F)(F)F)cc2)OCCCC[C@H](C)O3)cc1", "values": [
      {"measurement": "AC50", "setting": "[18]", "value": "41.7 µM (active)"},
      {"measurement": "AC50", "setting": "Paired box protein Pax-8", "value": "9.98 µM (active)"},
      {"measurement": "AC50", "setting": "[19]", "value": "24.7 µM (active)"},
      {"measurement": "AC50", "setting": "[20]", "value": "46.2 µM (active)"},
      {"measurement": "AC50", "setting": "[21]", "value": "19.4 µM (active)"}
    ]},
    {"smiles": "N#Cc1cccc(CSc2nnc(-c3ccccc3)o2)c1", "values": [
      {"measurement": "AC50", "setting": "[22]", "value": "> 52 µM (inactive)"}
    ]},
    {"smiles": "Oc1ccc(CCNc2c3c(nc4ccccc24)CCCC3)cc1O", "values": [
      {"measurement": "IC50", "setting": "[23]", "value": "3.6 µM (active)"}
    ]},
    {"smiles": "Cc1cccc(NC2=CC(=O)c3ccccc3C2=O)c1", "values": [
      {"measurement": "AC50", "setting": "[24]", "value": "0.66 µM (active)"},
      {"measurement": "AC50", "setting": "[25]", "value": "18.9 µM (active)"},
      {"measurement": "AC50", "setting": "[26]", "value": "> 70 µM (inactive)"}
    ]},
    {"smiles": "N#C[C@H]1N[C@H](CO)[C@@H]1c1ccc(C#Cc2ccccc2F)cc1", "values": [
      {"measurement": "AC50", "setting": "[27]", "value": "> 70 µM (inactive)"},
      {"measurement": "AC50", "setting": "[28]", "value": "> 70 µM (inactive)"},
      {"measurement": "AC50", "setting": "[29]", "value": "45.2 µM (active)"},
      {"measurement": "AC50", "setting": "[30]", "value": "30.1 µM (active)"},
      {"measurement": "AC50", "setting": "[21]", "value": "49.8 µM (active)"}
    ]},
    {"smiles": "O=S(=O)(Nc1cc(Cl)c(O)c2ccccc12)c1ccc(F)cc1", "values": [
      {"measurement": "CC50", "setting": "[31]", "value": "12.5 µM (active)"}
    ]},
    {"smiles": "CCOC(=O)C1(CCOc2ccccc2)CCN(Cc2ccc3[nH]c(=O)oc3c2)CC1", "values": [
      {"measurement": "AC50", "setting": "[32]", "value": "> 30 µM (inactive)"}
    ]}
  ]
}
